How the values were obtained:
[1] = system: ERK-dependent nuclear signalling (histone H3) and cytoplasmic signalling (ribosomal protein S6); test: Ex vivo acute slices, glutamate stimulation, immunofluorescence for phospho-acetyl histone H3 and phospho-S6; format: cell-based, mouse; conditions: 50 μM peptide, glutamate 100 μM
Description: (§1) a) RB5 peptide selectively promoted activation of ERK2. Acute striatal slices either pre-treated with Scramble (SCR) or RB5 peptide (50 μM) and then stimulated 10 minutes with glutamate (GLU) (100 μM) or vehicle were analysed in Western blot (left panel) and probed with anti phospho ERK antibodies (p44^ERK1 and p42^ERK2) and anti ERK1/2 antibody. GAPDH was used as loading control. […] No changes were detected in the total ERK1 and ERK2 levels. GAPDH was used as loading control. […] Mice injected with a single dose of CPP-SCR or CPP-RB5 peptides (20 mg/kg, i.p.) were rapidly perfused 1 h later and brains were dissected and further analysed for IHC and immunofluorescence. Representative photomicrographs of pERK1/2, pMSK, pAch3, pELK1 and c-Fos expression in the striatum. […] Two-way ANOVA Bonferroni post hoc comparison: one black star, p<0.05, two black stars, p<0.01, one white star, p<0.001. p) Dose response curve of RB5 peptide for ERK activation. 200 μm thick striatal slices were freshly prepared from 2-month old mice and transferred into a perfusion chamber for 1 h at 32° C. Slices were pre-treated with different doses of RB5 or scrambled control. After 1 h, slices for each dose was fixed in PFA 4% for 15 min. 18 μm cryo-sections were processed for immunohistochemistry with anti-phospho p44/p42 MAP kinase. Neuronal quantification was performed with ImageJ software by counting the number of phospho-ERK positive cells in each slice. The level of activation is expressed on the Y-axis as arbitrary units (AU). Doses are reported in a logarithmic scale (Log 10) on the X-axis. The EC50 was calculated using GraphPad Prism software.
Adult mice were anesthetized and decapitated. […]
Slides were placed in a humid chamber and 1 h after blocking in 5% normal goat serum and 0.1% Triton X-100 solution, they were incubated overnight at 4° C. with one of the following primary antibodies: anti-phospho-S6 ribosomal protein (Ser235/236) (1:200 Cell Signalling Technology, Danvers, Mass.), anti-phospho-S6 ribosomal protein (Ser240/244) (1:200 Cell Signalling Technology, Danvers, Mass.), anti-phospho (Ser10)-acetylated (Lys14) histone H3 (1:1000 (Millipore, Billerica, Mass.) or Cleaved Caspase 3 (1:200 Cell Signalling Technology, Danvers, Mass.) and anti-NeuN (1:1000 Millipore, Billerica, Mass.) followed by appropriate secondary antibodies. […] Neuronal quantification is performed with ImageJ software by counting phospho-S6 immunoreactive or pH3 neurons among NeuN positive neurons in each slide (n=10 for each experimental group). […]

Lister Hooded rats = test: Contextual Fear Conditioning after infusion into dorsal hippocampus; format: in vivo, rat
Description: (*p<0.05, **p<0.01, FLSD test).
The subjects were adult male Lister hooded rats weighing 280-350 g. They were housed in pairs, in holding rooms maintained at 21° C. on a reversed-light cycle (12 h light/dark; lights on at 10:00 P.M.). All experiments were conducted in the dark period of the rats. Food and water were freely available throughout the experiment. Steel double guide cannulae aimed at the dorsal hippocampus (AP−3.50, relative to bregma) were surgical implanted under anaesthesia at least one week prior to behavioural training and microinfusions. Bilateral infusions with either 2 mg/ml CPP-SCR or CPP-RB5, 20 min prior to conditioning (pH 7.0, […]) via the chronically indwelling cannula were carried out in awake rats using a syringe pump, connected to injectors (28 gauge, projecting 1 mm beyond the guide cannulae) by polyethylene tubing.
Conditioning was performed in one of two distinct contexts. These contexts were designed to differ in a number of distinctive characteristics including size, spatial location, odour and lighting.
Rat protocol: during the 3 min conditioning training trial, rats received a single scrambled footshock (0.5 mA for 2 s) 2 min after being placed into one of the conditioning contexts (CtxA). All rats were returned to the home cages after conditioning. Retrieval tests 3 hr (post-retrieval short-term memory, STM), or 2 days (long-term memory, LTM) after recall again consisted of exposing the rat to the conditioning context for 2 min.
For all protocols, freezing behavior served as a measure of conditioned fear to the context during the conditioning and retrieval tests of the behavioural procedures. This was video-recorded and quantified by an observer blind to the experimental group. One unit of freezing was defined as a continuous absence of movement other than that required for respiration in 1 s sampled every 10 s.

ERK1/2 = test: Ex vivo acute striatal slices, glutamate stimulation, Western blot for phospho ERK; format: cell-based, mouse; conditions: 50 μM peptide; for ERK2 activation (phosphorylation of ERK2) / pERK1 (phospho-ERK1) level: glutamate 100 μM 10 min, vs scramble
Description: as §1
Adult mice were anesthetized and decapitated. The brains were rapidly removed from the skull and put on a cool glass plate filled with ice-cold sucrose-based dissecting solution (87 mM NaCl, 2.5 mM KCl, 7 mM MgCl2, 1 mM NaH2PO4, 75 mM sucrose, 25 mM NaHCO3, 10 mM D-glucose, 0.5 mM CaCl2), 2 mM kynurenic acid) and oxygenated with 95% O2 and 5% CO2 and subsequently mounted on the vibratome stage (Vibratome, VT1000S-Leica Microsystems). 200 μm-thick slices were cut and transferred into the brain slice chamber (Brain slice chamber-BSC1—Scientific System design Inc., Mississauga, ON, Canada) and allowed to recover for 1 h at 32° C., with a constant perfusion of carboxygenated artificial cerebrospinal fluid (ACSF) in the presence of the Scramble or RB5 peptide (50 μM). Brain slice stimulation was performed with 100 μM glutamate in the chamber for 10 min. After rapid fixation in 4% PFA for 15 min at room temperature, slices were rinsed and the cryoprotected overnight at 4° C. in sucrose solution. On the following day slices were further cut in thinner slices of 18 μm using cryostat (Leica CM1850) and collected onto SuperFrost Plus slides (Thermo Scientific).
Mice were sacrificed by decapitation and brain slices were freshly prepared according to the above ex-vivo system protocol and incubated in a perfusing chamber with the peptides. After stimulation with glutamate or saline, slices were then homogenised and used for protein determination using a DC Protein Assay kit (Bio-rad). Equal amounts of protein (5 or 10 μg, depending on the target protein) for each sample were loaded onto 12% polyacrylamide gels. Proteins were separated onto SDS/PAGE and transferred to nitrocellulose membranes. After incubation for 1 hr in blocking solution (TBS1λ, 0.1% Tween), membranes were incubated overnight with anti ERK2 (K-23):sc-153 (1:1000 Santa Cruz Biotechnology, Dallas, Tex.), phospho-p42-44 Map Kinase (Thr202/[…]) (1:1000 Cell Signalling Technology, Danvers, Mass.) and anti-GAPDH (FL-335): sc-25778 (1:1000 Santa Cruz Biotechnology, Dallas, Tex.). The immunoblots were analysed with ImageJ software to measure the optical density of the bands. The levels of each protein were normalized on the GAPDH loading control.

[2] = 2 mg/ml infusion into dorsal hippocampus prior to CFC
[3] = 2 mg/ml bilateral dorsal CA1 infusion 20 min prior to conditioning

## GRKKRRQRRRPPQGGGGGEPRRTEGVGPGVPGEVEMVKGQPFDV (listed as Homo sapiens) [CPP-RB5]
[1]
  phospho (Ser10)-acetyl(Lys14)-histone-H3, nuclear ERK signalling: massive intra-nuclear MAPKs substrate activation
  phospho-S6 ribosomal protein, cytosolic/cytoplasmic signalling: no effect
Lister Hooded rats; [2]
  acquisition of contextual fear memory: enhanced
  long-term fear memory: stronger long-term fear memory
ERK1/2
  total ERK1 and ERK2 levels: no changes
  ERK2 activation (phosphorylation of ERK2): selectively enhanced
  pERK1 (phospho-ERK1) level: equally increased

## CSCC[C@H](NC(=O)[C@H](CCC(=O)O)NC(=O)[C@@H](NC(=O)[C@H](CCC(=O)O)NC(=O)CNC(=O)[C@@H]1CCCN1C(=O)[C@@H](NC(=O)CNC(=O)[C@@H]1CCCN1C(=O)CNC(=O)[C@@H](NC(=O)CNC(=O)[C@H](CCC(=O)O)NC(=O)[C@@H](NC(=O)[C@H](CCCNC(=N)N)NC(=O)[C@H](CCCNC(=N)N)NC(=O)[C@@H]1CCCN1C(=O)[C@H](CCC(=O)O)NC(=O)CNC(=O)CNC(=O)CNC(=O)CNC(=O)CNC(=O)[C@H](CCC(N)=O)NC(=O)[C@@H]1CCCN1C(=O)[C@@H]1CCCN1C(=O)[C@H](CCCNC(=N)N)NC(=O)[C@H](CCCNC(=N)N)NC(=O)[C@H](CCCNC(=N)N)NC(=O)[C@H](CCC(N)=O)NC(=O)[C@H](CCCNC(=N)N)NC(=O)[C@H](CCCNC(=N)N)NC(=O)[C@H](CCCCN)NC(=O)[C@H](CCCCN)NC(=O)[C@H](CCCNC(=N)N)NC(=O)CNC(C)=O)[C@@H](C)O)C(C)C)C(C)C)C(C)C)C(=O)N[C@H](C(=O)N[C@@H](CCCCN)C(=O)NCC(=O)N[C@@H](CCC(N)=O)C(=O)N1CCC[C@H]1C(=O)N[C@@H](Cc1ccccc1)C(=O)N[C@@H](CC(=O)O)C(=O)N[C@@H](C(=O)O)C(C)C)C(C)C [RB5]
[1]
  phospho (Ser10)-acetyl(Lys14)-histone-H3, nuclear ERK signalling: promotes
  phospho-S6 ribosomal protein, cytosolic/cytoplasmic signalling: not activated
Lister Hooded rats; [3]
  STM and LTM (freezing at 3 hr and 2 days after training): increase in both STM and LTM
  post footshock (postUS) freezing behaviour during fear conditioning: increase
ERK1/2
  total ERK1 and ERK2 levels: No changes
  ERK2 activation (phosphorylation of ERK2): significantly higher
  pERK1 (phospho-ERK1) level: equally increased

Source: patent US11471502B2, “Neuroprotective peptide” (UNIVERSITY COLLEGE CARDIFF C[…], priority 2017, dated 2022)
